Measurements taken from PMC11025159 (Journal of Translational Medicine, 2024).
Where “and” joins values, the source holds several entries; their conditions need not be identical. Equal values may be shown once.

Key:
DHT-induced AGA mice = assay: Hair regrowth in DHT-induced AGA mice model (topical, 28 days); type: in vivo, C57BL/6J mice; details: for H&E skin histopathology finding: Days 7, 14, 21, 28
Method: (§1) C57BL/6 J mice (male) were obtained from CSIR-IIIM Animal House at 7 weeks of age. We used a DHT-induced AGA mice model for this study. […] At the end of the experiment, skin samples were collected and preserved in 10% neutral buffered formalin for tissue sectioning and staining using haematoxylin and eosin (H&E). The histopathological examinations were performed under the 10× and 40× objectives of light microscope (Magnus, Mx21i).
Dorsal skin samples from C57BL/6J mice were shaved and collected for histological and molecular analyses on Days 7, 14, 21, and 28. The full-thickness skin tissue was fixed in a 10% neutral buffered formalin solution (Sigma) overnight and subsequently dehydrated for embedding in paraffin. Haematoxylin and eosin (H&E) staining was performed on the skin tissue, and digital photomicrographs were taken from the representative areas using light microscope (Magnus, Mx21i).
The quantification of anagen initiation was assessed by observing changes in the dorsal skin colour of C57BL/6 mice, a phenomenon closely linked to the onset of the anagen phase. Anagen quantification was done by employing threshold analysis on dorsal skin colouration using ImageJ. The darkening of the skin, attributed to melanogenesis, strongly correlates with the progression of anagen. This analysis is visually depicted as a heatmap using GraphPad Prism 9.5 Software.

[1] = Body weight, biochemical and haematological parameters in DHT-induced AGA mice (0.5% testosterone then topical treatment); type: in vivo, C57BL/6J mice; details: for Weight of C57BL/6J mice: individual mice; for ALP / ALT/SGPT / AST/SGOT / Cholesterol / Creatine / HCT / HDL / HGB / LDL / MCHC / MCV / NEUT / PLT / RBC / Total protein / Triglyceride / Urea / WBC / LYMPH: Day 21; for LYMPH: unit assumed
Method: The experiments were performed on C57BL/6 J and Athymic nude mice (NU/J Foxn1^nu) of 6–7 weeks of age obtained from Animal House Facility, CSIR-Indian Institute of Integrative Medicine (IIIM), Jammu, India. […] The animals were provided with ad libitum feed (standard pellet diet) and autoclaved RO water throughout the study. The body weight of mice was measured after seven days before treatment.
as §1
Every two weeks during the experimental period, mice were anesthetized, and the blood samples were collected into tubes containing heparin sodium to detect the total and differential white blood cells, haemoglobin, red blood cell, platelet count, mean corpuscular haemoglobin, mean corpuscular volume, red blood cell volume, mean platelet volume, and analyzed using an automated haematology analyzer (Model: XT1800i; Make: Sysmex).
Every two weeks during the experimental period, mice and rats were anesthetized, and blood samples were collected into non-heparinized tubes and then centrifuged at 1000 rpm at 4 °C for 10 min to obtain the serum. The biochemical parameters, including total protein, aspartate aminotransferase, alanine aminotransferase, total protein, albumin, total bilirubin, direct bilirubin, glucose, total cholesterol, triglyceride, low-density lipoprotein, high-density lipoprotein, creatinine, and uric acid, were measured using an automatic biochemical analyzer (Model: EM360; Make: Erba Mannheim).

Fc1ccc(-c2cnc3[nH]cc(-c4ccnc(NC5CC5)n4)c3c2)cc1 [MJ04]
hair growth compared to controls and tofacitinib-treated mice (DHT-induced AGA mice; 0.04 mg/Kg topical): significantly higher and homogeneous hair growth
H&E skin histopathology finding (DHT-induced AGA mice; 0.04mg/kg): Minimal degree of epidermal atrophy
H&E skin histopathology finding (DHT-induced AGA mice; 0.08mg/kg): Normal epidermis with increased hair follicles
hair follicle phase (histopathology) (DHT-induced AGA mice; skin samples days 7, 14, 21, 28): at least in the anagen IIIc-IV phase
entry into the anagen phase (DHT-induced AGA mice; topical once a day in presence of testosterone): rapid entry into the anagen phase within seven days of treatment
mice displaying intense skin darkening followed by hair growth (DHT-induced AGA mice; within 10 days of treatment): around 90%
Weight of C57BL/6J mice ([1]; 0.016 mg/Kg, DAY 1, in g (unit assumed)): 27.2 and 23.8 and 24.6 and 24.7 and 25.6 and 25.7 and 25.8
Weight of C57BL/6J mice ([1]; 0.016 mg/Kg, DAY 7): 28.1 and 25.1 and 26.1 (2×) and 26.9 and 27.1 and 27.3
Weight of C57BL/6J mice ([1]; 0.016 mg/Kg, DAY 14, in g (unit assumed)): 29.3 and 26.4 and 27.3 and 27.4 and 28.1 and 28.4 and 28.7
Weight of C57BL/6J mice ([1]; 0.016 mg/Kg, DAY 21, in g (unit assumed)): 27.6 and 28.7 and 28.9 and 29.7 and 30.1 and 30.4
Weight of C57BL/6J mice ([1]; 0.016 mg/Kg, DAY 28): 30.3 and 30.4 (2×) and 31.6 and 31.7
Weight of C57BL/6J mice ([1]; 0.04 mg/Kg, DAY 1): 24.2 and 24.6 and 25.6 (2×) and 25.7 and 25.8 and 26.3 and 27.4
Weight of C57BL/6J mice ([1]; 0.04 mg/Kg, DAY 7, in g (unit assumed)): 26.1 and 26.3 and 26.4 and 26.7 and 26.9 and 27.1 and 27.2 and 28.7
Weight of C57BL/6J mice ([1]; 0.04 mg/Kg, DAY 14): 28.1 and 28.3 (2×) and 28.5 and 28.6 and 28.7 and 29.6
Weight of C57BL/6J mice ([1]; 0.04 mg/Kg, DAY 21): 29.4 and 29.7 and 29.8 and 30.1 and 30.4 (2×)
Weight of C57BL/6J mice ([1]; 0.04 mg/Kg, DAY 28): 30.3 and 31.2 (2×) and 31.3 and 31.5
Weight of C57BL/6J mice ([1]; 0.08 mg/Kg, DAY 1): 24.8 and 25.4 (2×) and 26.4 (2×) and 24.2 and 25.6 and 25.9
Weight of C57BL/6J mice ([1]; 0.08 mg/Kg, DAY 7): 26.7 (3×) and 25.5 and 27.3 and 27.5 and 28.37 and 25.7
Weight of C57BL/6J mice ([1]; 0.08 mg/Kg, DAY 14): 27.6 and 28.1 (2×) and 28.4 and 27.1 and 29.3 and 27.4
Weight of C57BL/6J mice ([1]; 0.08 mg/Kg, DAY 21): 29.4 (2×) and 29.7 and 30.1 and 30.7 and 28.6
Weight of C57BL/6J mice ([1]; 0.08 mg/Kg, DAY 28): 30.3 and 31.2 and 31.3 (2×) and 30.2
ALP ([1]; 0.016 mg/Kg): 99 U/L
ALT/SGPT ([1]; 0.016 mg/Kg): 86 U/L
AST/SGOT ([1]; 0.016 mg/Kg): 143 U/L
Cholesterol ([1]; 0.016 mg/Kg): 154 mg/dL
Creatine ([1]; 0.016 mg/Kg): 0.72 mg/dL
HCT ([1]; 0.016 mg/Kg): 48%
HDL ([1]; 0.016 mg/Kg): 112 mg/dL
HGB ([1]; 0.016 mg/Kg): 14 g/dL
LDL ([1]; 0.016 mg/Kg): 103 mg/dL
MCHC ([1]; 0.016 mg/Kg): 29 g/dL
MCV ([1]; 0.016 mg/Kg): 50 fL
NEUT ([1]; 0.016 mg/Kg): 25.7%
PLT ([1]; 0.016 mg/Kg): 1105 103/μl
RBC ([1]; 0.016 mg/Kg): 9.7 1012/l
Total protein ([1]; 0.016 mg/Kg): 5.2 g/dL
Triglyceride ([1]; 0.016 mg/Kg): 114 mg/dL
Urea ([1]; 0.016 mg/Kg): 55 mg/dL
WBC ([1]; 0.016 mg/Kg): 6.5 103/μl
LYMPH ([1]; 0.016 mg/Kg): 73.3%
ALP ([1]; 0.04 mg/Kg): 121 U/L
ALT/SGPT ([1]; 0.04 mg/Kg): 74 U/L
AST/SGOT ([1]; 0.04 mg/Kg): 148 U/L
Cholesterol ([1]; 0.04 mg/Kg): 138 mg/dL
Creatine ([1]; 0.04 mg/Kg): 0.69 mg/dL
HCT ([1]; 0.04 mg/Kg): 46%
HDL ([1]; 0.04 mg/Kg): 111 mg/dL
HGB ([1]; 0.04 mg/Kg): 13 g/dL
LDL ([1]; 0.04 mg/Kg): 101 mg/dL
MCHC ([1]; 0.04 mg/Kg): 29 g/dL
MCV ([1]; 0.04 mg/Kg): 50 fL
NEUT ([1]; 0.04 mg/Kg): 39.4%
PLT ([1]; 0.04 mg/Kg): 899 103/μl
RBC ([1]; 0.04 mg/Kg): 9.0 1012/l
Total protein ([1]; 0.04 mg/Kg): 4.9 g/dL
Triglyceride ([1]; 0.04 mg/Kg): 127 mg/dL
Urea ([1]; 0.04 mg/Kg): 49 mg/dL
WBC ([1]; 0.04 mg/Kg): 3.0 103/μl
LYMPH ([1]; 0.04 mg/Kg): 60.3%
ALP ([1]; 0.08 mg/Kg): 111 U/L
ALT/SGPT ([1]; 0.08 mg/Kg): 58 U/L
AST/SGOT ([1]; 0.08 mg/Kg): 114 U/L
Cholesterol ([1]; 0.08 mg/Kg): 184 mg/dL
Creatine ([1]; 0.08 mg/Kg): 0.49 mg/dL
